This passage reports IC50 results from patent US20100267697A1, “ION CHANNEL MODULATORS” (Wyeth, priority 2006, published 2010).

Where a name gives a salt, the structure may show the parent alone.

T2 sequence (Q00975 whole entry): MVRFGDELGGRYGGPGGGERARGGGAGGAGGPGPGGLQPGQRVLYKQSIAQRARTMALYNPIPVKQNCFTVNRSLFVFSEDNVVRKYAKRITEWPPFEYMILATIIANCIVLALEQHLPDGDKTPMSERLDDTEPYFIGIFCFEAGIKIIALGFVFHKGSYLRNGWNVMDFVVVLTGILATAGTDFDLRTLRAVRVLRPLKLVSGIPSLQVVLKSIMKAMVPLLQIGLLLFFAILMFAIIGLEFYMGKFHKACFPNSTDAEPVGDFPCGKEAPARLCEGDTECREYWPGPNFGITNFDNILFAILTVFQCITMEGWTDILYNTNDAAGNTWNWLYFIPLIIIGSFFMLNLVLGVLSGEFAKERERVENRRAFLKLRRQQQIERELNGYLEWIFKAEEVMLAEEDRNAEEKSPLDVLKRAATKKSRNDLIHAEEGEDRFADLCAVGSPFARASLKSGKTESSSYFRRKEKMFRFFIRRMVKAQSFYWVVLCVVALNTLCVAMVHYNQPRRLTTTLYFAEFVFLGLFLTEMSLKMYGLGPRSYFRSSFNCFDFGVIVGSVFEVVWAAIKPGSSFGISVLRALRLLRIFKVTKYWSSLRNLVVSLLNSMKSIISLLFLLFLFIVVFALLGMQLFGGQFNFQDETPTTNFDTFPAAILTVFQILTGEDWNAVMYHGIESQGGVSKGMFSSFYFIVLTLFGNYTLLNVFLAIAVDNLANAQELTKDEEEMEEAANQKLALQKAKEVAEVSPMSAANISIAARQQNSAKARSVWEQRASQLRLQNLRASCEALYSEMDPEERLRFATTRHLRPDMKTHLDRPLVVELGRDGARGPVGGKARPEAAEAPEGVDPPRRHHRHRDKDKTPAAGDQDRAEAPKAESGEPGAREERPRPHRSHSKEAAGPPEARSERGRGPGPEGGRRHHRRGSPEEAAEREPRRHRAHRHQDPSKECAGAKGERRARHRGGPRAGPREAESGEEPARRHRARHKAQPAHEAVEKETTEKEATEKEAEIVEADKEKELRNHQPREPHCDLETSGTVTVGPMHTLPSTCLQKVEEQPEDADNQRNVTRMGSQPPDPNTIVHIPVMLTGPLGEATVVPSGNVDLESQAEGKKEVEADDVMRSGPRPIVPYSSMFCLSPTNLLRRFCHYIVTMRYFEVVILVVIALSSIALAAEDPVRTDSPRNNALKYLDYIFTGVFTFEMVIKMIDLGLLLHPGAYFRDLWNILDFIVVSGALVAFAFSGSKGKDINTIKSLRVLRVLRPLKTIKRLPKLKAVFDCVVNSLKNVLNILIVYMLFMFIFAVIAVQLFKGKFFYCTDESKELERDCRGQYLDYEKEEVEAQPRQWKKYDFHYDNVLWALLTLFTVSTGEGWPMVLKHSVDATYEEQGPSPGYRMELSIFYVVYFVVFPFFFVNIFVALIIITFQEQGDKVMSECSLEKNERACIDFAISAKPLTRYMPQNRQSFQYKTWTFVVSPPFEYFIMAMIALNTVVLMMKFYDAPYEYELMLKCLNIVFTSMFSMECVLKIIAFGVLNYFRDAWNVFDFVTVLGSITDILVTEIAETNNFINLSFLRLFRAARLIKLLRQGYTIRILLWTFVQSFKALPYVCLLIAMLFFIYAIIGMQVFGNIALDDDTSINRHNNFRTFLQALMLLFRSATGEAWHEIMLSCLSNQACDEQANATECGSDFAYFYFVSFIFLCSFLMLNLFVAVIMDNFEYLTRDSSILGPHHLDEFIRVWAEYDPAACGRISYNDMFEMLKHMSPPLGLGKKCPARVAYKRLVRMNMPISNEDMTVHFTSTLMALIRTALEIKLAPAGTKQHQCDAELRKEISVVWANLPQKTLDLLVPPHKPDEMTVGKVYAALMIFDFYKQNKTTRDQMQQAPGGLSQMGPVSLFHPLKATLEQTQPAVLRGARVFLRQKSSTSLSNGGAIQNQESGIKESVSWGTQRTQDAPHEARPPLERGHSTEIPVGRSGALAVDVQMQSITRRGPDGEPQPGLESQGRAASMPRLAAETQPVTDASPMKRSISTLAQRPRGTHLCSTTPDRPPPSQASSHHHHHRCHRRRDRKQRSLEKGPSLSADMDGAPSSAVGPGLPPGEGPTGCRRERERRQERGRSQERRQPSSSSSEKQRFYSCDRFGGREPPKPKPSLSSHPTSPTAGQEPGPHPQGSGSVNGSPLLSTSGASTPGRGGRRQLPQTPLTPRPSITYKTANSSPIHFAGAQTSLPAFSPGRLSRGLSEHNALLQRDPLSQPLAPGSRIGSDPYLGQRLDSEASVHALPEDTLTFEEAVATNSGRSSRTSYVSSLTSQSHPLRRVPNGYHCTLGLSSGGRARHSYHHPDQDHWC
T2 sequence (P54284 whole entry partner): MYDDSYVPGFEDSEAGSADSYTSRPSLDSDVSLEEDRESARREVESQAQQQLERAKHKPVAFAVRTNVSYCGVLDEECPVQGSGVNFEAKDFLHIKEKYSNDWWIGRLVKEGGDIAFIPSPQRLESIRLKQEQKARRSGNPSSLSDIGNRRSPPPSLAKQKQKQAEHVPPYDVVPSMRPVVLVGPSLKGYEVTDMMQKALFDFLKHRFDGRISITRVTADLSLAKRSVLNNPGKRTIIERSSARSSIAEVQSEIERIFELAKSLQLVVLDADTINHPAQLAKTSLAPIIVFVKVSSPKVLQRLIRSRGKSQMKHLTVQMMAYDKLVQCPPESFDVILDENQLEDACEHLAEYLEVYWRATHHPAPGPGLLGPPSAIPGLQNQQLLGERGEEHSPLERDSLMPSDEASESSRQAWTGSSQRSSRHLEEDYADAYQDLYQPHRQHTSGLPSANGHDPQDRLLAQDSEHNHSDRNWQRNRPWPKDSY
T2 sequence (P54289 25-946 partner limits assumed): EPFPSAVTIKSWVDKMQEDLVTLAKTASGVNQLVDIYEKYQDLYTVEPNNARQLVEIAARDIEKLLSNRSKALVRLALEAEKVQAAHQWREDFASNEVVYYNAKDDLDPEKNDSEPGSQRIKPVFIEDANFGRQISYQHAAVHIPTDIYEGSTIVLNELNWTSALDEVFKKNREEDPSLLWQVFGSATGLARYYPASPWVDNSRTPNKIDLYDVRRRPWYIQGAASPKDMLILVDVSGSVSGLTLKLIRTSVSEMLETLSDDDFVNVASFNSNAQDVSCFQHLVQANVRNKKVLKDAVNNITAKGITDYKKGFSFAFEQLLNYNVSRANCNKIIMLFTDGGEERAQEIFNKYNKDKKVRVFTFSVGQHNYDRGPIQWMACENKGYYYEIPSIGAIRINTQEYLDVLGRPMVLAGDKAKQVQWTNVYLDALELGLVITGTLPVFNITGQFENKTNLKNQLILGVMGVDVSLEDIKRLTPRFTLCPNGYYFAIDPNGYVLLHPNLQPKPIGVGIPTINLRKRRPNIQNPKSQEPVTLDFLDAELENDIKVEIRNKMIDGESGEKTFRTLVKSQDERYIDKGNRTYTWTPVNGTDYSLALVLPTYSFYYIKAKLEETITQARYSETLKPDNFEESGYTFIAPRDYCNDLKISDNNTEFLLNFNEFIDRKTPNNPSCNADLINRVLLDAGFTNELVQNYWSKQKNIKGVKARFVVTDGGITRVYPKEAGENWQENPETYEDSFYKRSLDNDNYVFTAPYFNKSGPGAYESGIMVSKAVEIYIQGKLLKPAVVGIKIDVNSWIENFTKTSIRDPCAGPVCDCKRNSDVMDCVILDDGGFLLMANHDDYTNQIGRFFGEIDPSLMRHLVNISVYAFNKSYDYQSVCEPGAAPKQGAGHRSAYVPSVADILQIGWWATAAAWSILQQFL
T2 sequence (P54289 947-1103 partner limits assumed): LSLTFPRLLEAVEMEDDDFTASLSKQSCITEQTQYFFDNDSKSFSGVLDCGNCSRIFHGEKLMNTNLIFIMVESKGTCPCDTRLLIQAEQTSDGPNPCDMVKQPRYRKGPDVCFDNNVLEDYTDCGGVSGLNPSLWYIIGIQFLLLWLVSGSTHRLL

The target in one test is T1, Cav2.2 (Homo sapiens, UniProt Q00975).
T1 construct: expressed in transfected cells; host or cells: HEK-293T/17 (transient, FuGENE 6)
T1 sequence (Q00975 whole entry): as the sequence (Q00975 whole entry) above
T1 sequence (P54284 whole entry partner): as the sequence (P54284 whole entry partner) above
T1 sequence (P54289 25-946 partner limits assumed): as the sequence (P54289 25-946 partner limits assumed) above
T1 sequence (P54289 947-1103 partner limits assumed): as the sequence (P54289 947-1103 partner limits assumed) above
In words: HEK assay (whole-cell patch clamp, transiently transfected HEK-293T/17 cells, pulses P1 and P5). In kind it is cell-based. The note with it: fifth pulse (P5) of 5 Hz train, holding potential −100 mV, read-out: HEK Cav2.2 P5 IC50. In outline: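 Whole-cell voltage clamp of HEK-293T/17 cells transiently transfected via FuGENE 6, then grown 24 h in 1% serum before recording. From −100 mV holding, trains of five 20–30 ms steps to about +10 mV at 5 Hz, repeated every 30 s; steady-state IC50s taken at first (P1) and fifth (P5) pulses to gauge use-dependent block.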
In general terms: In patch-clamp work, channel activity is measured electrically.
With `CC(C)(C)OC(=O)N(Cc1csc(-c2ccncc2)n1)c1ccc(F)cc1` [Compound 101, (4-Fluorophenyl)-(2-pyridin-4-yl-thiazol-4-ylmethyl)-carabamic acid tert-butyl ester], the IC50 (in general, the concentration needed to halve the response being measured) turned out to be 8.4 µM.

For `CCN(c1ccc(CN(C(=O)C2CCN(Cc3ccccc3)CC2)c2ccc(F)cc2)cn1)C1CC1` [Compound 12, 1-benzyl-piperidine-4-carboxylic acid [6-(Cyclopropyl(ethyl)amino)-pyridin-3-ylmethyl]-(4-fluorophenyl)-amide dihydrochloride], the IC50 worked out at 0.4 µM.

In the case of `CCN(Cc1ccncc1)c1ccc(CN(C(=O)C(C)(C)C)c2ccc(F)cc2)cn1` [Compound 41, N-[6-(Ethyl-pyridin-4-ylmethyl-amino)-pyridin-3-ylmethyl]-N-(4-fluorophenyl)-2,2-dimethyl-propionamide], the half-maximal inhibitory concentration (IC50) amounted to 2 µM.

On to `CC(C)(C)C(=O)N(Cc1ccc(N2CCC(c3nc4ccccc4[nH]3)CC2)nc1)c1ccc(F)cc1` [Compound 53, N-[4-(1H-Benzoimidazol-2-yl)-3,4,5,6-tetrahydro-2H-[1,2′]bipyridinyl-5′-ylmethyl]-N-(4-fluorophenyl)-2,2-dimethyl-propionamide], for which the half-inhibitory concentration (IC50) is 0.3 µM.

As for `CC(C)(C)C(=O)N(Cc1ccc(NCCc2cccnc2)nc1)c1ccc(F)cc1` [Compound 59, N-(4-Fluorophenyl)-2,2-dimethyl-N-[6-(2-pyridin-3-yl-ethylamino)-pyridin-3-ylmethyl]-propionamide], the IC50 was determined as 3.8 µM.

For `CN(C)c1ccc(N(Cc2csc(N(C)c3ccc(C(F)(F)F)cc3)n2)C(=O)C(C)(C)C)cc1` [Compound 89, N-(4-Dimethylamino-phenyl)-2,2-dimethyl-N-{2-[methyl-(4-trifluoromethyl-phenyl)-amino]-thiazol-4-ylmethyl}-propionamide], the IC50 is 0.3 µM.

The same test, now with this note: first pulse (P1) of 5 Hz train, holding potential −100 mV, read-out: HEK Cav2.2 P1 IC50.
Take `CCN(c1ccc(CN(C(=O)C2CCN(Cc3ccccc3)CC2)c2ccc(F)cc2)cn1)C1CC1` [Compound 12, 1-benzyl-piperidine-4-carboxylic acid [6-(Cyclopropyl(ethyl)amino)-pyridin-3-ylmethyl]-(4-fluorophenyl)-amide dihydrochloride]: the IC50 came to 1 µM.

Take `CCN(Cc1ccncc1)c1ccc(CN(C(=O)C(C)(C)C)c2ccc(F)cc2)cn1` [Compound 41, N-[6-(Ethyl-pyridin-4-ylmethyl-amino)-pyridin-3-ylmethyl]-N-(4-fluorophenyl)-2,2-dimethyl-propionamide]: the IC50 is 6.3 µM.

For the compound `CC(C)(C)C(=O)N(Cc1ccc(N2CCC(c3nc4ccccc4[nH]3)CC2)nc1)c1ccc(F)cc1` [Compound 53, N-[4-(1H-Benzoimidazol-2-yl)-3,4,5,6-tetrahydro-2H-[1,2′]bipyridinyl-5′-ylmethyl]-N-(4-fluorophenyl)-2,2-dimethyl-propionamide], the IC50 is 0.6 µM.

As to `CC(C)(C)C(=O)N(Cc1ccc(NCCc2cccnc2)nc1)c1ccc(F)cc1` [Compound 59, N-(4-Fluorophenyl)-2,2-dimethyl-N-[6-(2-pyridin-3-yl-ethylamino)-pyridin-3-ylmethyl]-propionamide], the IC50 was 29.1 µM.

With `CN(C)c1ccc(N(Cc2csc(N(C)c3ccc(C(F)(F)F)cc3)n2)C(=O)C(C)(C)C)cc1` [Compound 89, N-(4-Dimethylamino-phenyl)-2,2-dimethyl-N-{2-[methyl-(4-trifluoromethyl-phenyl)-amino]-thiazol-4-ylmethyl}-propionamide], the half-inhibitory concentration (IC50) came to 1.1 µM.

The next test has as its target T2, human Cav2.2 (composed of the subunits α1, β3 and α2δ) (Homo sapiens, UniProt Q00975).
T2 construct: expressed in transfected cells
In words: FLIPR assay (TSA201 cells stably transfected with human Cav2.2 and human Kir2.3, FLUO-4 Ca2+ signal, KCl depolarization). In kind it is cell-based. Particulars: 70 mM KCl depolarization, average value. The method, then: TSA201 cells stably transfected with human Cav2.2 (composed of the subunits α1, β3 and α2δ) and human Kir2.3 to enhance the FLIPR Ca^2+ signal were used. These cells were plated on 384-well collagen-coated plates (BD Bioscience, Franklin Lakes, N.J.) at a density of 2×10^4 cells/well one day prior to the FLIPR assay. […] Culture media is removed and replaced with 25 μl of the FLUO-4 dye solution and incubated for one hour at room temperature. The cell plate is then placed on the FLIPR where the dye is aspirated off and replaced with 25 μl of HBSS (Invitrogen, Carlsbad, Calif.). The HBSS is then aspirated and replaced with […] of compound which is diluted in HBSS with 1% DMSO. Compounds are incubated on the cells for 15 minutes. The cells are then depolarized with 25 μl of 140 mM KCl solution (also containing 2 mM CaCl2 and 10 mM HEPES). The final concentration of KCl on the cells is 70 mM.
Take `CCN(c1nc(CN(C(=O)C(C)(C)C)c2ccc(OC)cc2)cs1)C1CC1` [Compound 175, N-({2-[cyclopropyl(ethyl)amino]-1,3-thiazol-4-yl}methyl)-N-(4-methoxyphenyl)-2,2-dimethylpropanamide]: the IC50 was 3.6 µM.

`CC(C)(C)C(=O)N(Cc1csc(N2CCN(c3ccccc3)CC2)n1)c1ccc(F)cc1` [Compound 147, N-(4-fluorophenyl)-2,2-dimethyl-N-{[2-(4-phenylpiperazin-1-yl)-1,3-thiazol-4-yl]methyl}propanamide]: half-maximal inhibition (IC50) required 2.8 µM.

`CC(C)(C)C(=O)N(Cc1csc(-c2cccc(O)c2)n1)c1ccc(F)cc1` [Compound 245, N-(4-fluorophenyl)-N-{[2-(3-hydroxyphenyl)-1,3-thiazol-4-yl]methyl}-2,2-dimethylpropanamide] displayed an IC50 of 5.4 µM.

For `CC(=O)N(Cc1ccc(N2CCC(CO)CC2)nc1)c1ccc(F)cc1` [Compound 233, N-(4-fluorophenyl)-N-({6-[4-(hydroxymethyl)piperidin-1-yl]pyridin-3-yl}methyl)acetamide], the midpoint of inhibition, the IC50, lay at 22.2 µM.

As for `CCC(=O)N(CCc1cccnc1)c1ccc(CN(C(=O)C(C)(C)C)c2ccc(F)cc2)cn1` [Compound 135], the IC50 was determined as 1.35 µM.

Consider `CC(C)(C)C(=O)N(Cc1ccc(N2CCOCC2)nc1)c1ccc(F)cc1` [Compound 196, N-(4-fluorophenyl)-2,2-dimethyl-N-[(6-morpholin-4-ylpyridin-3-yl)methyl]propanamide], for which the IC50 is 13.8 µM.

The compound `CN1CCN(c2ccc(CN(C(=O)[C@@H]3CCNC3)c3ccc(F)cc3)cn2)CC1` [Compound 259, (3R)-N-(4-fluorophenyl)-N-{[6-(4-methylpiperazin-1-yl)pyridin-3-yl]methyl}pyrrolidine-3-carboxamide] returned a 50% inhibitory concentration (IC50) of 59.5 µM.

`CC(C)(C)C(=O)N(Cc1ccc(-c2cccc(C(=O)O)c2)nc1)c1ccc(F)cc1` [Compound 203, 3-(5-{[(2,2-dimethylpropanoyl)(4-fluorophenyl)amino]methyl}pyridin-2-yl)benzoic acid]: the IC50 was 39 µM.

`CC(=O)N(Cc1csc(N(C)CCO)n1)c1ccc(F)cc1` [Compound 221, N-(4-fluorophenyl)-N-({2-[(2-hydroxyethyl)(methyl)amino]-1,3-thiazol-4-yl}methyl)acetamide] registered a 50% inhibitory concentration (IC50) of 37 µM.

As to `CN1CCN(c2ccc(CN(C(=O)C3CCCO3)c3ccc(F)cc3)cn2)CC1` (stereo not drawn) [Compound 250, N-(4-fluorophenyl)-N-{[6-(4-methylpiperazin-1-yl)pyridin-3-yl]methyl}tetrahydrofuran-2-carboxamide], the IC50 was 34.4 µM.

`CC(C)(C)C(=O)N(Cc1csc(N2CCCCCCC2)n1)c1ccc(F)cc1` [Compound 184, N-[(2-azocan-1-yl-1,3-thiazol-4-yl)methyl]-N-(4-fluorophenyl)-2,2-dimethylpropanamide]: the half-maximal inhibitory concentration (IC50) is 1.6 µM.

As to `O=C(C1CC1)N(Cc1csc(N2CCOCC2)n1)c1ccc(F)cc1` [Compound 207, N-(4-fluorophenyl)-N-[(2-morpholin-4-yl-1,3-thiazol-4-yl)methyl]cyclopropanecarboxamide], the midpoint of inhibition, the IC50, lay at 23.9 µM.

With `CC(C)(C)C(=O)N(Cc1csc(N2CCC3(CC2)OCCO3)n1)c1ccc(F)cc1` [Compound 181, N-{[2-(1,4-dioxa-8-azaspiro[4.5]dec-8-yl)-1,3-thiazol-4-yl]methyl}-N-(4-fluorophenyl)-2,2-dimethylpropanamide], the 50% inhibitory concentration (IC50) amounted to 2.7 µM.

`O=C(C1CCCCC1)N(Cc1csc(N2CCOCC2)n1)C1CCCCC1` [Compound 200, N-cyclohexyl-N-[(2-morpholin-4-yl-1,3-thiazol-4-yl)methyl]cyclohexanecarboxamide] displayed an IC50 of 6.3 µM.

`CCN(c1nc(CN(C(=O)C(C)(C)C)c2ccccc2OC)cs1)C1CC1` [Compound 174, N-({2-[cyclopropyl(ethyl)amino]-1,3-thiazol-4-yl}methyl)-N-(2-methoxyphenyl)-2,2-dimethylpropanamide] showed an IC50 of 3.8 µM.

For the compound `CC(C)(C)C(=O)N(Cc1csc(N(c2ccccc2)c2ccccc2)n1)c1ccc(F)cc1` [Compound 179, N-{[2-(diphenylamino)-1,3-thiazol-4-yl]methyl}-N-(4-fluorophenyl)-2,2-dimethylpropanamide], the IC50 was 3.9 µM.

Regarding `CC(=O)N(Cc1csc(N2CCC(C#N)CC2)n1)c1ccc(F)cc1` [Compound 220, N-{[2-(4-cyanopiperidin-1-yl)-1,3-thiazol-4-yl]methyl}-N-(4-fluorophenyl)acetamide], the IC50 was 16.6 µM.

Take `CN(C)CCCN1CCN(c2nc(CN(C(=O)C(C)(C)C)c3ccc(F)cc3)cs2)CC1` [Compound 166, N-[(2-{4-[3-(dimethylamino)propyl]piperazin-1-yl}-1,3-thiazol-4-yl)methyl]-N-(4-fluorophenyl)-2,2-dimethylpropanamide]: the IC50 stood at 19.8 µM.

In turn, `CC1CCN(c2nc(CN(C(=O)C(C)(C)C)c3ccc(F)cc3)cs2)CC1` [Compound 192, N-(4-fluorophenyl)-2,2-dimethyl-N-{[2-(4-methylpiperidin-1-yl)-1,3-thiazol-4-yl]methyl}propanamide] gave an IC50 of 1.9 µM.

In turn, `CCN(c1nc(CN(C(=O)[C@H]2CCCN2)c2ccc(F)cc2)cs1)C1CC1` [Compound 123, N-({2-[cyclopropyl(ethyl)amino]-1,3-thiazol-4-yl}methyl)-N-(4-fluorophenyl)-D-prolinamide] returned an IC50 of 10.2 µM.

In turn, `CC(=O)N(Cc1ccc(N2CCN(C)CC2)nc1)C1CCCCC1` [Compound 236, N-cyclohexyl-N-{[6-(4-methylpiperzin-1-yl)pyridin-3-yl]methyl}acetamide] registered an IC50 of 29.4 µM.

Compound `CC(C)CNc1nc(CN(C(=O)C(C)(C)C)c2ccc(F)cc2)cs1` [Compound 161, N-(4-fluorophenyl)-N-{[2-(isobutylamino)-1,3-thiazol-4-yl]methyl}-2,2-dimethylpropanamide] showed a 50% inhibitory concentration (IC50) of 2.7 µM.

`CC(C)(C)C(=O)N(Cc1csc(-c2ccccc2F)n1)c1ccc(F)cc1` [Compound 249, N-(4-fluorophenyl)-N-{[2-(2-fluorophenyl)-1,3-thiazol-4-yl]methyl}-2,2-dimethylpropanamide] yielded an IC50 of 7.9 µM.

`CC(=O)N(Cc1csc(N2CCC(CO)CC2)n1)c1ccc(F)cc1` [Compound 224, N-(4-fluorophenyl)-N-({2-[4-(hydroxymethyl)piperidin-1-yl]-1,3-thiazol-4-yl}methyl)acetamide] registered an IC50 of 12.3 µM.

In turn, `CC(C)(C)C(=O)N(Cc1csc(N2CCSCC2)n1)c1ccc(F)cc1` [Compound 189, N-(4-fluorophenyl)-2,2-dimethyl-N-[(2-thiomorpholin-4-yl-1,3-thiazol-4-yl)methyl]propanamide] came in with a half-maximal inhibitory concentration (IC50) of 1.6 µM.
